# In PubChem BioAssay AID330 (DTP/NCI, 2004):
# Several values for one entry are separate records, joined by “and”; a condition that tells them apart may be missing. Identical values can stand only once. Inconclusive results and toxic doses are left out. Peptide text beside a SMILES is read from it.
# System: P388 leukemia ip, CD2F1 mice, survival T/C
# Assay: NCI In Vivo Anticancer Drug Screen. Data for tumor model P388 Leukemia (intraperitoneal) in CD2F1 (CDF1) mice
# Details: endpoint: median survival time, higher = longer survival
# Method in brief: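 Mice carrying the transplanted tumor received test compound or vehicle. Survival was recorded in each group, and the value is the treated-group measurement divided by that of the vehicle-treated control group.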
# [1] = dose: 50.0 mg/kg/injection, schedule: Q01DX009 (ip), vehicle: Klucel (hydroxypropylcellulose) (HPC)
# [2] = dose: 100.0 mg/kg/injection, schedule: Q01DX009 (ip), vehicle: Klucel (hydroxypropylcellulose) (HPC)
# [3] = dose: 200.0 mg/kg/injection, schedule: Q01DX009 (ip), vehicle: Klucel (hydroxypropylcellulose) (HPC)
# [4] = dose: 50.0 mg/kg/injection, schedule: Q01DX009 (ip), vehicle: saline with Tween-80
# [5] = dose: 100.0 mg/kg/injection, schedule: Q01DX009 (ip), vehicle: saline with Tween-80
# [6] = dose: 60.0 mg/kg/injection, schedule: Q01DX005 (ip), vehicle: saline with Tween-80
# [7] = dose: 120.0 mg/kg/injection, schedule: Q01DX005 (ip), vehicle: saline with Tween-80
# [8] = dose: 240.0 mg/kg/injection, schedule: Q01DX005 (ip), vehicle: saline with Tween-80
# [9] = dose: 100.0 mg/kg/injection, schedule: Q04DX003 (ip), vehicle: saline with Tween-80
# [10] = dose: 200.0 mg/kg/injection, schedule: Q04DX003 (ip), vehicle: saline with Tween-80
# [11] = dose: 400.0 mg/kg/injection, schedule: Q04DX003 (ip), vehicle: saline with Tween-80
# [12] = dose: 50.0 mg/kg/injection, schedule: Q01DX005 (ip), vehicle: Klucel (hydroxypropylcellulose) (HPC)
# [13] = dose: 100.0 mg/kg/injection, schedule: Q01DX005 (ip), vehicle: Klucel (hydroxypropylcellulose) (HPC)
# [14] = dose: 200.0 mg/kg/injection, schedule: Q01DX005 (ip), vehicle: Klucel (hydroxypropylcellulose) (HPC)
# [15] = dose: 50.0 mg/kg/injection, schedule: Q01DX009 (ip), vehicle: saline
# [16] = dose: 100.0 mg/kg/injection, schedule: Q01DX009 (ip), vehicle: saline
# [17] = dose: 12.5 mg/kg/injection, schedule: Q01DX009 (ip), vehicle: saline
# [18] = dose: 25.0 mg/kg/injection, schedule: Q01DX009 (ip), vehicle: saline
# [19] = dose: 100.0 mg/kg/injection, schedule: Q01DX001 (ip), vehicle: saline with Tween-80
# [20] = dose: 50.0 mg/kg/injection, schedule: Q01DX005 (ip), vehicle: saline with Tween-80
# [21] = dose: 100.0 mg/kg/injection, schedule: Q01DX005 (ip), vehicle: saline with Tween-80
# [22] = dose: 25.0 mg/kg/injection, schedule: Q01DX005 (ip), vehicle: saline with Tween-80
smiles,measurement,setting,value
O=C(O)/C=C\C(=O)NCCCCCC(=O)O,T/C,[1],102 % of control
same,T/C,[2],103 % of control
same,T/C,[3],105 % of control
CNC1C(O)C2Oc3c(cc(O)c4c3C(=O)c3cc5c(c(O)c3C4=O)C(OC3OC(C)C(OC)C(C)(OC)C3OC)CC(C)(O)C5C(=O)OC)C(C)(O2)C1O (stereo unspecified),T/C,"dose: 3.12 mg/kg/injection, schedule: Q04DX003 (ip), vehicle: other",99 % of control
same,T/C,"dose: 6.25 mg/kg/injection, schedule: Q04DX003 (ip), vehicle: other",115 % of control
same,T/C,"dose: 12.5 mg/kg/injection, schedule: Q04DX003 (ip), vehicle: other",150 % of control
same,T/C,"dose: 25.0 mg/kg/injection, schedule: Q04DX003 (ip), vehicle: other",160 % of control
CCCCCCC(=O)/C=C/c1ccc(OC)c(OC)c1,T/C,[4],107 % of control
same,T/C,[5],114 % of control
same,T/C,"dose: 200.0 mg/kg/injection, schedule: Q01DX009 (ip), vehicle: saline with Tween-80",115 % of control
O=S(=O)(c1ccc(F)cc1)N(CCCCCN(S(=O)(=O)c1ccc(F)cc1)S(=O)(=O)c1ccc(F)cc1)S(=O)(=O)c1ccc(F)cc1,T/C,[6],97 % of control
same,T/C,[7],91 % of control
same,T/C,[8],90 % of control
Nc1nc(Cl)c2nc(Cl)n(C3OC(CO)C(O)C3O)c2n1 (stereo unspecified),T/C,"dose: 50.0 mg/kg/injection, schedule: Q04DX003 (ip), vehicle: saline with Tween-80",100 % of control
same,T/C,[9],100 % of control
same,T/C,[10],100 % of control
same,T/C,[11],91 % of control
Nc1cccc2c1C(=O)c1ccc(Cl)cc1C2=O,T/C,[12],99 % of control
same,T/C,[13],94 % of control
same,T/C,[14],99 % of control
CCCCC(CC)CS(=O)(=O)OCCCCOS(=O)(=O)CC(CC)CCCC (stereo unspecified),T/C,[12],101 % of control
same,T/C,[13],105 % of control
same,T/C,[14],108 % of control
FC(F)(F)COP(OCC(F)(F)F)OCC(F)(F)F,T/C,[9],118 % of control
same,T/C,[10],102 % of control
same,T/C,[11],104 % of control
COC(=O)C1CCC[P+]1(C)C (stereo unspecified),T/C,"dose: 100.0 mg/kg/injection, schedule: Q01DX001 (ip), vehicle: saline",106 % of control
same,T/C,"dose: 400.0 mg/kg/injection, schedule: Q01DX001 (ip), vehicle: saline",101 % of control
Cc1c(Cl)cccc1NC(=O)NNC(=O)c1ccncc1,T/C,[1],90 % of control
same,T/C,[2],88 % of control
same,T/C,[3],88 % of control
BrCCCOc1ccccc1Br,T/C,[12],101 % of control
same,T/C,[13],97 % of control
same,T/C,[14],105 % of control
ClC(Cl)=Nc1ccc(Cl)cc1Cl,T/C,[15],100 % of control
same,T/C,[16],89 % of control
ClCCN(CCCl)c1ccc(CN2CCCCCC2)cc1,T/C,"dose: 6.25 mg/kg/injection, schedule: Q01DX009 (ip), vehicle: saline",111 % of control
same,T/C,[17],114 % of control
same,T/C,[18],116 % of control
N#Cc1ncn(Cc2ccccc2)c1N,T/C,"dose: 15.0 mg/kg/injection, schedule: Q01DX005 (ip), vehicle: saline with Tween-80",95 % of control
same,T/C,"dose: 30.0 mg/kg/injection, schedule: Q01DX005 (ip), vehicle: saline with Tween-80",101 % of control
same,T/C,[6],105 % of control and 109 % of control
C=C1C(=O)OC2C=CCCCC12 (stereo unspecified),T/C,"dose: 50.0 mg/kg/injection, schedule: Q01DX001 (ip), vehicle: saline with Tween-80",105 % of control
same,T/C,[19],102 % of control
CC(C)CNCC(=O)Nc1ccc(Cc2ccc(NC(=O)CNCC(C)C)cc2)cc1,T/C,[20],102 % of control
same,T/C,[21],97 % of control
COC(=O)C(Cc1ccccc1)NC(=O)C(CC(C)C)NC(=O)C(CC(C)C)NC(=O)C(N)CC(C)C (stereo unspecified) (H-LLLF-OMe; configuration not given here),T/C,[20],98 % of control
same,T/C,[21],104 % of control
CNC(=O)OC1CC2CCCCC2C([N+](C)(C)C)C1 (stereo unspecified),T/C,[17],105 % of control
same,T/C,[18],112 % of control
same,T/C,[15],100 % of control and 106 % of control
Cc1cc2nc3ccc(N=Nc4ccc(N(C)C)cc4)cc3n(-c3ccccc3)c-2cc1=N,T/C,"dose: 0.39 mg/kg/injection, schedule: Q01DX009 (ip), vehicle: saline",113 % of control and 118 % of control
same,T/C,"dose: 0.78 mg/kg/injection, schedule: Q01DX009 (ip), vehicle: saline",119 % of control
COC(F)C(C)=O (stereo unspecified),T/C,"dose: 100.0 mg/kg/injection, schedule: Q01DX001 (ip), vehicle: other",103 % of control
same,T/C,"dose: 200.0 mg/kg/injection, schedule: Q01DX001 (ip), vehicle: other",101 % of control
same,T/C,"dose: 400.0 mg/kg/injection, schedule: Q01DX001 (ip), vehicle: other",112 % of control
CN1COc2c(Cl)cc(Cl)cc2C1,T/C,"dose: 25.0 mg/kg/injection, schedule: Q01DX009 (ip), vehicle: saline with Tween-80",95 % of control
same,T/C,[4],90 % of control
same,T/C,[5],86 % of control
CCCn1cc2c3c(cccc31)C1C=C(C)CN(C)C1C2 (stereo unspecified),T/C,"dose: 6.25 mg/kg/injection, schedule: Q01DX005 (ip), vehicle: saline with Tween-80",100 % of control and 107 % of control
same,T/C,"dose: 12.5 mg/kg/injection, schedule: Q01DX005 (ip), vehicle: saline with Tween-80",99 % of control and 100 % of control and 116 % of control
same,T/C,[22],98 % of control and 105 % of control and 108 % of control
same,T/C,[21],117 % of control
COC(=O)[C@@H]1[C@H]2CS(=O)(=O)C[C@H]2[C@@H]1C(=O)OC,T/C,[12],99 % of control
same,T/C,[13],96 % of control
same,T/C,[14],100 % of control
COc1cccc2c1C(CCCC(=O)O)CCC2 (stereo unspecified),T/C,[12],101 % of control
same,T/C,[13],104 % of control
same,T/C,[14],104 % of control
O=C(Nc1ccc(Cl)c(C(F)(F)F)c1)Nc1c(Oc2ccc(Cl)c(Cl)c2)ccc(Cl)c1S(=O)(=O)O,T/C,[18],118 % of control
same,T/C,[15],118 % of control
same,T/C,[16],118 % of control
COC1C=CCCC1 (stereo unspecified),T/C,"dose: 100.0 mg/kg/injection, schedule: Q01DX001 (ip), vehicle: Klucel (hydroxypropylcellulose) (HPC)",108 % of control
same,T/C,"dose: 200.0 mg/kg/injection, schedule: Q01DX001 (ip), vehicle: Klucel (hydroxypropylcellulose) (HPC)",117 % of control
same,T/C,"dose: 400.0 mg/kg/injection, schedule: Q01DX001 (ip), vehicle: Klucel (hydroxypropylcellulose) (HPC)",106 % of control
CCOC(=O)c1cnc(SC)n(-c2ccc(OC)cc2)c1=O,T/C,[12],107 % of control
same,T/C,[13],92 % of control
same,T/C,[14],101 % of control
CC[N+](CC)(CC)CC(=O)c1ccc(Br)cc1,T/C,[17],100 % of control
same,T/C,[18],104 % of control
same,T/C,[15],95 % of control
COc1ccc(Cc2cc(C(C)(C)C)cc(C(C)(C)C)c2O)cc1,T/C,"dose: 50.0 mg/kg/injection, schedule: Q01DX005 (ip), vehicle: distilled water + alcohol",96 % of control
same,T/C,"dose: 100.0 mg/kg/injection, schedule: Q01DX005 (ip), vehicle: distilled water + alcohol",96 % of control
same,T/C,"dose: 200.0 mg/kg/injection, schedule: Q01DX005 (ip), vehicle: distilled water + alcohol",95 % of control
O=c1[nH]nc(NC2Nc3ccccc3N2)c2ccccc12,T/C,[6],97 % of control
same,T/C,[7],96 % of control
same,T/C,[8],96 % of control
CC(C)(C)SSC(=S)C1CCCCC1,T/C,[22],108 % of control
same,T/C,[20],106 % of control and 116 % of control
same,T/C,[21],108 % of control and 118 % of control
same,T/C,"dose: 200.0 mg/kg/injection, schedule: Q01DX005 (ip), vehicle: saline with Tween-80",117 % of control
CNC1=C(C)C(=O)C(C)=C(C(C)(C)CC(=O)n2cc(F)c(=O)[nH]c2=O)C1=O,T/C,[19],117 % of control
same,T/C,"dose: 200.0 mg/kg/injection, schedule: Q01DX001 (ip), vehicle: saline with Tween-80",122 % of control
CSc1nc(N)c(N=O)c(N)n1,T/C,"dose: 50.0 mg/kg/injection, schedule: Q04DX002 (ip), vehicle: suspension in saline",100 % of control
same,T/C,"dose: 100.0 mg/kg/injection, schedule: Q04DX002 (ip), vehicle: suspension in saline",101 % of control
same,T/C,"dose: 200.0 mg/kg/injection, schedule: Q04DX002 (ip), vehicle: suspension in saline",104 % of control
Nc1cc2nc(=O)cc3n2c(n1)SC3,T/C,[12],99 % of control
same,T/C,[13],100 % of control
same,T/C,[14],100 % of control
N/C(=N\S(=O)(=O)c1cc(C(F)(F)F)cc(C(F)(F)F)c1)c1ccncc1,T/C,[4],86 % of control
same,T/C,[5],90 % of control
